# Reference: US20050009797A1, “Androstane derivative having substituent in 7- abd 17--positions” (priority 2001, published 2005)
# Like-named read-outs stand apart in the source and are kept apart here.
# What was measured:
# [1] = Metabolic stability in rat liver microsome with β-NAD+ (Example 27); type: in vitro ADME; conditions: 37° C.
# Description: A test tube containing 0.1 mol/L potassium phosphate buffer (345 μL, pH 7.4) was cooled on ice, followed by addition of 5 mg/mL rat liver microsome (50 μL), 0.1 mol/L magnesium chloride (50 μL) and a test compound dissolved in ethanol (adjusted to 1 mg/mL, 5 μL). After pre-incubation at 37° C. for 5 minutes, 10 mM β-Nicotinamide-adenine dinucleotide, oxidized form (β-NAD^+) was added to initiate the reaction. The reaction was continued at 37° C. for 0, 5 and 15 minutes, followed by addition of 0.1 mol/L hydrochloric acid (100 μL) and diethyl ether (5 mL) to stop the reaction. The reaction mixture was stirred for 10 minutes and then centrifuged at 3000 rpm for 10 minutes. The upper organic layer (4.5 mL) was transferred to another test tube, evaporated to dryness under a nitrogen stream, dissolved in 40% acetonitrile (200 μL) and then measured for the peak area of the test compound by high performance liquid chromatography. The residual percentage of the test compound at a given point in time was calculated using the following equation: Residual (%)=[(peak area of the test compound at a given time point)/(peak area of the test compound at 0 minutes)]×100
# human androgen receptor [2] = molecular target: T1, human androgen receptor (Homo sapiens, UniProt P10275); assay: Androgen receptor reporter gene assay, antagonistic effects (Example 26); type: cell-based
# T1 construct: expressed in transfected cells; host or cells: HeLa cells
# T1 sequence (P10275 1-920): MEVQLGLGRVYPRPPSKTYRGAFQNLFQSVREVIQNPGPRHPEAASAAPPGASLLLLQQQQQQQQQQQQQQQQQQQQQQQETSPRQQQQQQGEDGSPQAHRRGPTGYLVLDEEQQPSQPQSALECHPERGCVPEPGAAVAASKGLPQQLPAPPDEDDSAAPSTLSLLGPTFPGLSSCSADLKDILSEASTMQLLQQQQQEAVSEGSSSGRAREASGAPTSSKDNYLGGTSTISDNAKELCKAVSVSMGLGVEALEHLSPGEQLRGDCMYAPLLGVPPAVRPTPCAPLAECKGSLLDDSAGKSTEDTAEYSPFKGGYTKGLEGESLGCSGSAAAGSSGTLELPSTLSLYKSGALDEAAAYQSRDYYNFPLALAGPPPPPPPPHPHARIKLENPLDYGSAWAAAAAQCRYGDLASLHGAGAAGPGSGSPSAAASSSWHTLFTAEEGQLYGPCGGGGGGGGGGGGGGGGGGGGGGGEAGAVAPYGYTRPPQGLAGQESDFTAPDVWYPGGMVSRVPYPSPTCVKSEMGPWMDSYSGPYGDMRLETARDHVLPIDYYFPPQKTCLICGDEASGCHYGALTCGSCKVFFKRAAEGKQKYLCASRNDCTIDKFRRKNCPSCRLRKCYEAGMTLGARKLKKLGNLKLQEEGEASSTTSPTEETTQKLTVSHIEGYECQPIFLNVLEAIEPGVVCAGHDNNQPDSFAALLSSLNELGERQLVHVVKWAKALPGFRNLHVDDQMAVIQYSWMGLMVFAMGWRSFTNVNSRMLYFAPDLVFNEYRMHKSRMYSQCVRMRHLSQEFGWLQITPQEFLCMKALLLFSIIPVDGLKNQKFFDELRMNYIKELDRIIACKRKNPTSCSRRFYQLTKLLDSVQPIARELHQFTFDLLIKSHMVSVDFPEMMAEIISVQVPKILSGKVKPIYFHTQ
# Description: (§1) Twenty-four hours before transfection, 1.0×10^5 HeLa cells are cultured in a 12-well microplate containing phenol red-free DMEM/5% DCC-FBS. The HeLa cells are then transfected with 500 ng/well MMTV-Luc vector, 100 ng/well pSG5-hAR and 5 ng/well Renilla Luc vector. Transfection is carried out in phenol red-free DMEM medium using 3 μL/well lipofectamine. Nine hours after transfection, the medium is replaced by phenol red-free DMEM/3% DCC-FBS supplemented with 0.1 nmol/L DHT and 1.0 μmol/L of the compound of Formula (I) or a salt or ester thereof according to the present invention. Forty-eight hours after replacement of the medium, the transcriptional activity is determined by a Dual-Luciferase Reporter Assay System according to the following equation: (transcriptional activity)=(firefly luciferase activity)/(Renilla luciferase activity). To effect this assay, reference may be made to J. Biol. Chem., vol. 270, p.
# (§2) Twenty-four hours before transfection, 1.0×10^5 HeLa cells were cultured in a 12-well microplate containing phenol red-free DMEM/5% DCC-FBS. The HeLa cells were then transfected with 500 ng/well MMTV-Luc vector, 100 ng/well pSG5-hAR and 5 ng/well Renilla Luc vector. Transfection was carried out in phenol red-free DMEM medium using […] lipofectamine. […] Forty-eight hours after replacement of the medium, the transcriptional activity was determined by a Dual-Luciferase Reporter Assay System according to the following equation: (transcriptional activity)=(firefly luciferase activity)/(Renilla luciferase activity).
# human androgen receptor [3] = molecular target: T1, human androgen receptor; assay: Androgen receptor reporter gene assay, agonistic effects (Example 25); type: cell-based; conditions: HeLa cells transfected with MMTV-Luc and pSG5-hAR; 1-10000 nmol/L; 48 h; no DHT
# Description: as §1, with “cells (purchased from Dainippon Pharmaceutical Co., Ltd.)” for “cells”, “Dulbecco's Modified Eagle Medium (phenol red-free DMEM) supplemented” for “DMEM/5% DCC-FBS. The HeLa cells are then transfected”, “charcoal-treated FBS (DCC-FBS; 5%). […]” for “500 ng/well MMTV-Luc vector, 100 ng/well pSG5-hAR and 5 ng/well Renilla Luc vector.”, “lipofectamine (Gibco BRL).” for “lipofectamine.”, “10” for “0.1 nmol/L DHT and 1.0”, “System (promega)” for “System”
# as §2
# The transcriptional activity thus determined was used to calculate agonist activity according to the following equation, which in turn was used to calculate a FI5 value (i.e., a concentration at which the compound provides a 5-fold increase in transcriptional activity as compared to the value obtained in the absence of the compound). Agonist activity=(transcriptional activity in the presence of the compound)/(transcriptional activity in the absence of the compound)
# androgen receptor = androgen receptor (Homo sapiens, UniProt P10275); conditions: concentration of 10 μM; cited from earlier work
# [4] = prostate cancer patients undergoing treatment with flutamide; cited from earlier work
# castrated rats = castrated rats continuously administered for two weeks; cited from earlier work
# [5] = 50% inhibition of transcriptional activity induced by DHT (0.1 nmol/L), HeLa cells transfected with MMTV-Luc and pSG5-hAR, 48 h, read-out: IC50 value
SMILES,IC50 (human androgen receptor [2]; [5]),FI5 value (concentration giving 5-fold increase in transcriptional activity) (human androgen receptor [3]),also measured
"CN(C)C(=O)CCCCCCC[C@@H]1C[C@H]2CC(=O)CC[C@]2(C)[C@H]2CC[C@]3(C)[C@@H](O)CC[C@H]3[C@H]12 [Comparative Example, 17β-hydroxy-7α-{7-(N,N-dimethylaminocarbonyl)heptyl}-5α-androstan-3-one, reference compound]",–,–,Residual (%) 5 minutes [1]: 59.4%; Residual (%) 15 minutes [1]: 15.1%
"C[C@]12CCC(=O)C=C1C[C@@H](CCCCc1cccc(OCCCCC(=O)O)c1)[C@@H]1[C@@H]2CC[C@@]2(C)[C@H]1CC[C@]2(C)O [Example 1, 17β-hydroxy-17α-methyl-7α-(4-(3-(4-carboxy-butoxy)phenyl)butyl)-4-androsten-3-one]",333 nM,ND* (a FI5 value cannot be calculated because the compound provides less than a 5-fold increase in transcriptional activity even at a concentration of 10000 nM),–
CC12CCC(=O)C=C1CC(CCCCCc1ccc(OCC(=O)O)cc1)C1C2CCC2(C)C1CCC2(C)O (stereo not shown) [Example 7],5140 nM,ND (a FI5 value cannot be calculated because the compound provides less than a 5-fold increase in transcriptional activity even at a concentration of 10000 nM),–
CC12CCC(=O)C=C1CC(CCCCc1cccc(OCCCCCC(=O)O)c1)C1C2CCC2(C)C1CCC2(C)O (stereo not shown) [Example 13],529 nM,ND (a FI5 value cannot be calculated because the compound provides less than a 5-fold increase in transcriptional activity even at a concentration of 10000 nM),–
"C[C@]12CCC(=O)C=C1C[C@@H](CCCc1ccc(OCCCC(=O)O)cc1)[C@@H]1[C@@H]2CC[C@@]2(C)[C@H]1CC[C@]2(C)O [Example 18, 17β-hydroxy-17α-methyl-7α-(3-(4-(3-carboxy-propoxy)phenyl)propyl)-4-androsten-3-one]",–,ND (a FI5 value cannot be calculated because the compound provides less than a 5-fold increase in transcriptional activity even at a concentration of 10000 nM),IC50 (human androgen receptor [2]): 664 nM; Residual (%) 5 minutes [1]: 113.7%; Residual (%) 15 minutes [1]: 110.8%
CC12CCC(=O)C=C1CC(CCCc1cccc(OCCCC(=O)O)c1)C1C2CCC2(C)C1CCC2(C)O (stereo not shown) [Example 20],815 nM,ND (a FI5 value cannot be calculated because the compound provides less than a 5-fold increase in transcriptional activity even at a concentration of 10000 nM),–
CC12CCC(=O)C=C1CC(CCCc1ccc(CCCCC(=O)O)cc1)C1C2CCC2(C)C1CCC2(C)O (stereo not shown) [Example 22],–,ND (a FI5 value cannot be calculated because the compound provides less than a 5-fold increase in transcriptional activity even at a concentration of 10000 nM),IC50 (human androgen receptor [2]): 717 nM
CC12CCC(=O)C=C1CC(CCCc1cccc(CCCCC(=O)O)c1)C1C2CCC2(C)C1CCC2(C)O (stereo not shown) [Example 24],4040 nM,ND (a FI5 value cannot be calculated because the compound provides less than a 5-fold increase in transcriptional activity even at a concentration of 10000 nM),–
CC(C)(O)C(=O)Nc1ccc([N+](=O)[O-])c(C(F)(F)F)c1 [Hydroxyflutamide],–,–,effect on transcriptional activity of androgen receptor (androgen receptor): enhance the transcriptional activity of androgen receptor; blood hydroxyflutamide levels [4]: several
CC(=O)O[C@]1(C(C)=O)CC[C@H]2[C@@H]3C=C(Cl)C4=CC(=O)CC[C@]4(C)[C@H]3CC[C@@]21C [chlormadinone acetate],–,–,prostate weight (castrated rats): increase in their prostate weight
CC(=O)O[C@]1(C(C)=O)CC[C@H]2[C@@H]3C=C(Cl)C4=CC(=O)[C@@H]5C[C@@H]5[C@]4(C)[C@H]3CC[C@@]21C [cyproterone acetate],–,–,prostate weight (castrated rats): increase in their prostate weight
